In one assay the target is T1, wildtype HIV-1 protease (Human immunodeficiency virus type 1 group M subtype B, UniProt P04585).
T1 construct: the wildtype HIV-1 protease (which was expressed in Escherichia coli); made in house; host or cells: Escherichia coli
The assay can be described thus: Assay for inhibition of microbial expressed HIV protease (Pepcleav). The class given is biochemical. Conditions: wild type HIV-1 protease expressed in E. coli, peptide substrate, pH 5.5; mean of at least two independent experiments; read-out: Pepcleav. In outline:
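Cleavage of 400 μM peptide substrate Val-Ser-Gln-Asn-(βnaphthyl)Ala-Pro-Ile-Val by 20 pM wild-type enzyme (E. coli-expressed) ran 1 h at 30 °C after 30 min inhibitor preincubation, pH 5.5 acetate buffer. Inhibition derived from product peak area by C18 LC with multiple-reaction-monitoring MS after formic acid quench.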

The subject of another assay is HIV-1 (H9IIIB strain). Briefly: Antiviral acute infection assay in cell culture (Spread). The class given is cell-based. Conditions: HIV-1 H9IIIB infection of MT-4 human T-lymphoid cells in 10% FBS, mean of at least two independent experiments. The text has this:
Antiviral Assays in Cell Culture (“Spread”)
Acute Infection Assay (“Spread”) data were generated using HIV-1 (H9IIIB strain) infection of MT-4 human T-lymphoid cells in 10% FBS, and according to the methods disclosed by J. P. Vacca et al, “L-735,524: An orally bioavailable human immunodeficiency virus type 1 protease inhibitor,” Proc. Natl. Acad. Sci. USA, Vol. 91, pp. 4096-4100 (April 1994).

The mark [1] stands for this setting: Human immunodeficiency virus 1, T-lymphoid.

Usually EC50 stands for the concentration needed to bring the measured effect to its halfway point. The low end stands for an effect from little substance, the high end for a need for much substance.

`C[C@H](Oc1c(F)cccc1NC(=O)[C@@H](N)C(c1ccc(F)cc1)c1ccc(F)cc1)[C@@H]1CN[C@H](COC(=O)NCC(F)(F)F)CO1` [Example 193, 4-fluoro-β-(4-fluorophenyl)-N-(3-fluoro-2-{(1S)-1-[(2S,5S)-5-({[(2,2,2-trifluoroethyl)carbamoyl]oxy}methyl)morpholin-2-yl]ethoxy}phenyl)-L-phenylalaninamide]: the IC50 on wildtype HIV-1 protease amounted to 120 nM. The molecule further yielded an EC50 in the assay on HIV-1 (H9IIIB strain) (setting [1]) of 1400 nM. In turn, `O=C(C[C@@H](c1ccc(Cl)cc1)c1ccc2c(c1)CCO2)Nc1cncc(F)c1CC[C@@H]1CN[C@H](COC(=O)NCC(F)(F)F)CO1` [Example 114, {(3S,6R)-6-[2-(3-{[(3S)-3-(4-Chlorophenyl)-3-(2,3-dihydro-1-benzofuran-5-yl)propanoyl]amino}-5-fluoropyridin-4-yl)ethyl]morpholin-3-yl}methyl (2,2,2-trifluoroethyl)carbamate] displayed an EC50 in the assay on HIV-1 (H9IIIB strain) (setting [1]) of 14 nM. In other words, the double-digit nanomolar range. The same measure, in the same setting: with `COC(=O)N[C@H](C(=O)Nc1cccc(F)c1CC[C@@H]1CN[C@H](COC(=O)NCC(F)(F)F)CO1)C(c1ccc(Cl)cc1)c1ccc(Cl)cc1` [Example 108, 4-Chloro-β-(4-chlorophenyl)-N-(3-fluoro-2-{2-[(2R,5S)-5-({[(2,2,2-trifluoroethyl)carbamoyl]oxy}methyl)morpholin-2-yl]ethyl}phenyl)-Nα-(methoxycarbonyl)-L-phenylalaninamide] the figure was 860 nM.

The molecule `O=C(C[C@@H](c1ccc(F)cc1)c1ccc(OC(F)(F)F)cc1)Nc1cccc(F)c1CC[C@@H]1CN[C@H](COC(=O)NCC(F)(F)F)CO1` [Example 159, [(3S,6R)-6-{2-[2-fluoro-6-({(3R)-3-(4-fluorophenyl)-3-[4-(trifluoro-methoxy)phenyl]propanoyl}amino)phenyl]ethyl}morpholin-3-yl] methyl (2,2,2-trifluoroethyl)carbamate] registered an EC50 in the assay with HIV-1 (H9IIIB strain) of 380 nM. Molecule `O=C(CC(c1ccc(F)cc1)c1ccc(F)cc1)Nc1cncc(F)c1CC[C@@H]1CN[C@H](COC(=O)NCC2CCCO2)CO1` (stereo partly drawn) [Example 169, {(3S,6R)-6-[2-(3-{[3,3-bis(4-fluoro-phenyl)propanoyl]amino}-5-fluoropyridin-4-yl)ethyl]morpholin-3-yl}methyl (tetrahydrofuran-2-ylmethyl)carbamate] displayed an EC50 in the assay with HIV-1 (H9IIIB strain) (setting [1]) of 73 nM.

As to `COC(=O)N[C@H](C(=O)Nc1cncc(F)c1CC[C@@H]1CN[C@H](COC(=O)NCC(F)(F)F)CO1)[C@@H](c1ccc(F)cc1)c1cccc(F)c1F` [Example 302, (βS)-2,3-difluoro-β-(4-fluorophenyl)-N-(5-fluoro-4-{2-[(2R,5S)-5-({[(2,2,2-trifluoroethyl)carbamoyl]oxy}methyl)morpholin-2-yl]ethyl}pyridin-3-yl)-Nα-(methoxy-carbonyl)-L-phenylalaninamide], the EC50 in the assay on HIV-1 (H9IIIB strain) (setting [1]) turned out to be 15 nM.

Consider `N[C@H](C(=O)Nc1cncc(F)c1CC[C@@H]1CN[C@H](COC(=O)NCC(F)(F)F)CO1)[C@@H](c1ccc(Cl)cc1)c1cccc(OC(F)(F)F)c1` [Example 98, (βS)-β-(4-Chlorophenyl)-N-(5-fluoro-4-{2-[(2R,5S)-5-({[(2,2,2-trifluoroethyl)carbamoyl]oxy}methyl)morpholin-2-yl]ethyl}pyridin-3-yl)-3-(trifluoromethoxy)-L-phenylalaninamide], for which the response in the assay with HIV-1 (H9IIIB strain) (setting [1]) was half-maximal at 28 nM (EC50). Still for that read-out and setting: the result for `CCc1nc(CNC(=O)OC[C@@H]2CO[C@H](CCc3c(F)cncc3NC(=O)CC(c3ccc(F)cc3)c3ccc(F)cc3)CN2)no1` [Example 174, {(3S,6R)-6-[2-(3-{[3,3-bis(4-fluoro-phenyl)propanoyl]amino}-5-fluoropyridin-4-yl)ethyl]morpholin-3-yl}methyl [(5-ethyl-1,2,4-oxadiazol-3-yl)methyl]carbamate] reads 120 nM; that for `O=C(CC(c1ccc(F)cc1)c1ccc(F)cc1)Nc1cncc(F)c1CC[C@@H]1CN[C@H](COC(=O)NC2c3ccccc3C[C@H]2O)CO1` (stereo partly drawn) [Example 185, {(3S,6R)-6-[2-(3-{[3,3-bis(4-fluoro-phenyl)propanoyl]amino}-5-fluoropyridin-4-yl)ethyl]morpholin-3-yl}methyl [(2R)-2-hydroxy-2,3-dihydro-1H-inden-1-yl]carbamate], 68 nM. In the assay with HIV-1 (H9IIIB strain) (setting [1]), `O=C(C[C@H](c1ccc(F)cc1)c1ccc(Cl)c(F)c1)Nc1cncc(F)c1CC[C@@H]1CN[C@H](COC(=O)NCC(F)(F)F)CO1` [Example 182, {(3S,6R)-6-[2-(3-{[(3R)-3-(4-chloro-3-fluorophenyl)-3-(4-fluoro-phenyl)propanoyl]amino}-5-fluoropyridin-4-yl)ethyl]morpholin-3-yl}methyl (2,2,2-trifluoroethyl)carbamate] came in with an EC50 of 17 nM. This EC50 lies about 4-fold lower than the previous one. Still for that read-out and setting: with `O=C(C[C@@H](c1ccc(F)cc1)c1ccc(C(F)(F)F)nc1)Nc1cncc(F)c1CC[C@@H]1CN[C@H](COC(=O)NCC(F)(F)F)CO1` [Example 133, [(3S,6R)-6-{2-[3-Fluoro-5-({(3S)-3-(4-fluorophenyl)-3-[6-(trifluoromethyl)pyridin-3-yl]propanoyl}amino)pyridin-4-yl]ethyl}morpholin-3-yl]methyl (2,2,2-trifluoroethyl)carbamate] the figure was 23 nM; with `O=C(C[C@@H](c1ccc(F)cc1)c1ccccc1F)Nc1cncc(F)c1CC[C@@H]1CN[C@H](COC(=O)NCC(F)(F)F)CO1` [Example 158, {(3S,6R)-6-[2-(3-fluoro-5-{[(3S)-3-(2-fluorophenyl)-3-(4-fluorophenyl)propanoyl]amino}pyridin-4-yl)ethyl]morpholin-3-yl]methyl (2,2,2-trifluoroethyl)carbamate], 34 nM; with `COC(=O)N[C@H](C(=O)Nc1cccc(F)c1CC[C@@H]1CN[C@H](COC(=O)NCC(F)(F)F)CO1)[C@@H](c1ccc(F)cc1)c1ccc(OC(F)(F)F)cc1` [Example 304, (βR)-β-(4-fluorophenyl)-N-(3-fluoro-2-{2-[(2R,5S)-5-({[(2,2,2-trifluoroethyl)carbamoyl]oxy}methyl)morpholin-2-yl]ethyl}phenyl)-Nα-(methoxy-carbonyl)-O-(trifluoromethyl)-L-tyrosinamide], 33 nM.

As to `CC1(C(=O)N[C@H](C(=O)Nc2cccc(F)c2CC[C@@H]2CN[C@H](COC(=O)NCC(F)(F)F)CO2)C(c2ccc(F)cc2)c2ccc(F)cc2)CC1` [Example 142, 4-Fluoro-β-(4-fluorophenyl)-N-(3-fluoro-2-{2-[(2R,5S)-5-({[(2,2,2-trifluoroethyl)carbamoyl]oxy}methyl)morpholin-2-yl]ethyl}phenyl)-Nα-[(1-methylcyclopropyl)carbonyl]-L-phenylalaninamide], in the assay on HIV-1 (H9IIIB strain) (setting [1]), a half-maximal effect (EC50) was put at 150 nM. Turning to `COC(=O)N[C@H](C(=O)Nc1cccc(F)c1CC[C@@H]1CN[C@H](COC(N)=O)CO1)[C@@H](c1ccc(F)cc1)c1cccc(F)c1` [Example 118, (βS)—N-[2-(2-{(2R,5S)-5-[(Carbamoyloxy)methyl]morpholin-2-yl}ethyl)-3-fluorophenyl]-4-fluoro-β-(3-fluorophenyl)-Nα-(methoxycarbonyl)-L-phenylalaninamide], the EC50 in the assay on HIV-1 (H9IIIB strain) (setting [1]) turned out to be 17 nM. On the same count and under the same terms, the result for `COC(=O)N[C@H](C(=O)Nc1cccc(F)c1CC[C@@H]1CN[C@H](COC(=O)NCC(F)(F)F)CO1)[C@@H](c1ccc(Cl)cc1)c1ccc2c(c1)OCO2` [Example 110, (βS)-β-1,3-Benzodioxol-5-yl-4-chloro-N-(3-fluoro-2-{2-[(2R,5S)-5-({[(2,2,2-trifluoroethyl)carbamoyl]oxy}methyl)morpholin-2-yl]ethyl}phenyl)-Nα-(methoxycarbonyl)-L-phenylalaninamide] reads 6.9 nM; that for `CS(=O)(=O)c1ccc([C@@H](CC(=O)Nc2cccc(F)c2CC[C@@H]2CN[C@H](COC(=O)NCC(F)(F)F)CO2)c2cccc(F)c2)cc1` [Example 113, [(3S,6R)-6-{2-[2-Fluoro-6-({(3R)-3-(3-fluorophenyl)-3-[4-(methylsulfonyl)phenyl]propanoyl}amino)phenyl]ethyl}morpholin-3-yl]methyl (2,2,2-trifluoroethyl)carbamate], 320 nM.

`N#Cc1ccc([C@@H](CC(=O)Nc2cncc(F)c2CC[C@@H]2CN[C@H](COC(=O)NCC(F)(F)F)CO2)c2ccc(F)c(F)c2)cc1` [Example 115, {(3S,6R)-6-[2-(3-{[(3R)-3-(4-Cyanophenyl)-3-(3,4-difluorophenyl)propanoyl]amino}-5-fluoropyridin-4-yl)ethyl]morpholin-3-yl}methyl (2,2,2-trifluoroethyl)carbamate] showed an EC50 in the assay on HIV-1 (H9IIIB strain) (setting [1]) of 30 nM. Against the preceding molecule, the EC50 is about 11-fold lower. On the same count and under the same terms, the result for `N#Cc1ccc([C@H](c2ccc(F)c(F)c2)[C@H](N)C(=O)Nc2cccc(F)c2CC[C@@H]2CN[C@H](COC(=O)NCC(F)(F)F)CO2)cc1` [Example 102, (βR)-β-(4-Cyanophenyl)-3,4-difluoro-N-(3-fluoro-2-{2-[(2R,5S)-5-({[(2,2,2-trifluoroethyl)carbamoyl]oxy}methyl)morpholin-2-yl]ethyl}phenyl)-L-phenylalaninamide] reads 37 nM; that for `N[C@H](C(=O)Nc1cncc(F)c1CC[C@@H]1CN[C@H](COC(=O)NCC(F)(F)F)CO1)[C@H](c1ccc(F)cc1)c1ccc(-c2cccnc2)cc1` [Example 224, (βS)-β-(4-fluorophenyl)-N-(5-fluoro-4-{2-[(2R,5S)-5-({[(2,2,2-trifluoro-ethyl)carbamoyl]oxy}methyl)morpholin-2-yl]ethyl}pyridin-3-yl)-4-pyridin-3-yl-L-phenylalaninamide], 260 nM.
